Here are results for two compounds from patent publication US20070238661A1, “Substance P treatment for hepatitis C” (priority 2006, published 2007).

One data set relates to Hepatitis C virus. As to conditions: substance P aerosol combined with standard drug treatment of ribavirin and interferon alpha.
For data set [1], the system named is A/Hong Kong 8/68 influenza virus. Further details: species or system C57BL/6 mice. The following applies: mouse, in vivo.
The test system of a further data set is lung protein alterations. Briefly: Acute formalin exposure lung injury model, lung protein analysis by two-dimensional gel electrophoresis. It is filed as in vivo, Fischer 344 rats. The method, then: In a third system, we sought to determine if Sar^9, Met (O2)^11-substance P-treated Fischer 344 rats who were exposed to 67 mg/m^3 […] aerosolize formalin for 1.5 minutes would attenuate lung protein alterations. At approximately 42 minutes post-formalin or air exposure, rat lungs were removed for protein analysis. […] Among these 71 proteins were fibrinogen-related proteins.

Take `CSCC[C@H](NC(=O)[C@H](CC(C)C)NC(=O)CNC(=O)[C@H](Cc1ccccc1)NC(=O)[C@H](Cc1ccccc1)NC(=O)[C@H](CCC(N)=O)NC(=O)[C@H](CCC(N)=O)NC(=O)[C@@H]1CCCN1C(=O)[C@H](CCCCN)NC(=O)[C@@H]1CCCN1C(=O)[C@@H](N)CCCN=C(N)N)C(N)=O` [substance P]: the “deleterious effects of ribavirin and interferon alpha (loss of appetite, nausea, vomiting, weight loss)” value in the data set with Hepatitis C virus is listed as “eliminated”.
Take Sar^9, Met (O2)^11-substance P: in data set [1], the “development of influenza symptoms (decreased body mass, fever, dehydration, nasal discharge)” value was “did not develop influenza symptoms”; the “leukotriene B4 levels relative to A/Hong Kong 8/68 virus only mice” value stood at 33%; the “lung cell counts after broncho-alveolar lavage” value is recorded as “normal lung cell counts”; the “signs of lung injury (electron micrographs)” value is “did not observe any signs of lung injury”. For the same compound, in the data set with lung protein alterations (67 mg/m^3 aerosolized formalin for 1.5 minutes, lungs removed about 42 minutes post-exposure, includes fibrinogen-related proteins), the “number of lung proteins whose formalin-mediated abundance changes were attenuated” value is reported as 71 proteins. For the same compound, the “lung fibrinogen concentrations after acute formalin exposure (proteomic analyses)” value with lung protein alterations (acute lung injury model) is given as “preserve fibrinogen concentrations”.
